Results as given in paper PMC6158578, “Optimization and Lead Selection of Benzothiazole Amide Analogs Toward a Novel Antimycobacterial Agent” (Frontiers in Microbiology, 2018).
In brackets after ≈: the same amount, converted by molar mass. Like-named read-outs stand apart in the source and are kept apart here.

Columns and labels:
S. aureus ATCC 29213 = assay: MIC, spectrum of activity; type: cell-based; conditions: Staphylococcus aureus, ATCC29213
[1] = system: M. tuberculosis H37Rv mc^2 6206; assay: microbe, parasite or virus in culture; type: cell-based; conditions: Mycobacterium tuberculosis
M. abscessus 21 = assay: MIC in MHB versus 7H9+OADC; type: cell-based
Other NTM (n = 12) = assay: MIC against rapid-growing NTM clinical isolates; type: cell-based; conditions: for MIC range: Other NTM (n = 12)
C. albicans ATCC 10231 = assay: MIC, spectrum of activity; type: cell-based; conditions: Candida albicans, ATCC10231
M. abscessus 1 = assay: MIC in MHB versus 7H9+OADC; type: cell-based
[2] = system: M. fortuitum (n = 11) clinical isolates; assay: MIC against rapid-growing NTM clinical isolates; type: cell-based; conditions: for MIC range: M. fortuitum (n = 11); for MIC90: Mycolicibacterium fortuitum
physchem = type: physicochemical; conditions: pH 7.4, aqueous buffer, thermodynamic from solid
Experimental: (§1) ADMET assays were performed through NIAID Preclinical Services and Eurofins. Potential for cytotoxicity was monitored in HepG2 cells after 72 h growth in the presence of test compounds, either prepared as 10-point 3-fold serial dilutions or at a fixed 10 μM concentration. Cell viability was measured using the CellTiter-Glo® Luminescent Cell Viability Assay (Promega) or via fluorescent image analysis. Cytotoxicity was expressed as IC50 or as percent reduction of viable cells relative to a reference compound. Metabolic stability of compounds was evaluated via incubation with human liver microsomes at 37°C and quantitative analysis of parent compound by LC-MS/MS in samples removed at 0, 5, 15, 30, and 45 min (Obach, [1999]). For cytochrome P450 (CYP) inhibition assays, compounds were prepared as a 7-point dilution series and incubated with human liver microsomes in buffer containing 2 mM NADPH and probe substrate. […] Thermodynamic solubility of compounds in aqueous media was determined by incubation in 50 mM potassium phosphate buffer (pH 7.4) for 24 h, followed by HPLC-UV detection of compound in the filtrate (Analiza, Cleveland, OH, United States).

M. fortuitum 41 = assay: MIC, broth microdilution with resazurin (MHB, 3 days); type: cell-based; conditions: Mycolicibacterium fortuitum, 41
M. avium 101 = assay: MIC, Middlebrook medium (7H9 + OADC, 7 days); type: cell-based; conditions: Mycobacterium avium, 101, 168 h
[3] = 50% complement-inactivated human serum
M. abscessus ATCC 19977 = assay: MIC, broth microdilution with resazurin (MHB, 3 days); type: cell-based; conditions: Mycobacteroides abscessus, ATCC19977
HepG2 cytotoxicity, 72 h = type: cell-based; conditions: human, HepG2 cells, HepG2, 72 h, read-out: HepG2 cytotox., IC50
Experimental: as §1

S. pyogenes ATCC 19615 = assay: MIC, spectrum of activity; type: cell-based; conditions: Streptococcus pyogenes, ATCC19615
M. abscessus 79 = assay: MIC in MHB versus 7H9+OADC; type: cell-based
CYP2B6 = target: T1, CYP2B6 (Homo sapiens, UniProt P20813); assay: CYP inhibition in human liver microsomes; type: in vitro ADME
T1 construct: incubated with human liver microsomes in buffer containing 2 mM NADPH and probe substrate; from tissue; host or cells: human liver microsomes
T1 sequence (P20813 1-491): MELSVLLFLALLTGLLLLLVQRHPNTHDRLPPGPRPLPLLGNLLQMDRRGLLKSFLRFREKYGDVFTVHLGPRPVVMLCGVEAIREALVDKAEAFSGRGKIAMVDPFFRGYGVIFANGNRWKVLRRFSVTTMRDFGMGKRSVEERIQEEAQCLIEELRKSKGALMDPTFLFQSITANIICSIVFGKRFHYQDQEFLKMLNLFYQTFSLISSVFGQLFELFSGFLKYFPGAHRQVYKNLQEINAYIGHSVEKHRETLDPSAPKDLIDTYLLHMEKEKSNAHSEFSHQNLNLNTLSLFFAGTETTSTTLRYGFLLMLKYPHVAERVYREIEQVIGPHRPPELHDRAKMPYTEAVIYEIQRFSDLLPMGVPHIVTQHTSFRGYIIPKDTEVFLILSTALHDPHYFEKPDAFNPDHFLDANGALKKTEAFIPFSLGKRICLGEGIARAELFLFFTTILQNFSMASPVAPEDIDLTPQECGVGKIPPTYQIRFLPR
Experimental: as §1

CYP3A = assay: CYP inhibition in human liver microsomes; type: in vitro ADME
Experimental: as §1

[4] = system: M. chelonae (n = 11) clinical isolates; assay: MIC against rapid-growing NTM clinical isolates; type: cell-based; conditions: for MIC range: M. chelonae (n = 11); for MIC90: Mycobacteroides chelonae
M. intracellulare 1956 = assay: MIC, Middlebrook medium (7H9 + OADC, 7 days); type: cell-based; conditions: Mycobacterium intracellulare, 1956, 168 h
[5] = system: E. coli ATCC 25922 + PMBN (permeabilized); assay: MIC, spectrum of activity; type: cell-based; conditions: Escherichia coli, ATCC25922
S. pneumoniae ATCC 49619 = assay: MIC, spectrum of activity; type: cell-based; conditions: Streptococcus pneumoniae, ATCC49619
M. chimaera 1502055 = assay: MIC, Middlebrook medium (7H9 + OADC, 7 days); type: cell-based; conditions: 1502055, 168 h
[6] = system: M. abscessus massiliense 119; assay: MIC, broth microdilution with resazurin (MHB, 3 days); type: cell-based; conditions: Mycobacteroides abscessus
[7] = system: M. peregrinum ATCC 700686; assay: as above; type: cell-based; conditions: Mycolicibacterium peregrinum, ATCC700686
M. chelonae 93 = assay: as above; type: cell-based; conditions: Mycobacteroides chelonae, 93
[8] = system: M. abscessus (n = 20) clinical isolates; assay: MIC against rapid-growing NTM clinical isolates; type: cell-based; conditions: for MIC range: M. abscessus (n = 20); for MIC90: Mycobacteroides abscessus
[9] = system: E. coli tolC CGSC 5633 (efflux mutant strain); assay: microbe, parasite or virus in culture; type: cell-based; conditions: Escherichia coli
P. aeruginosa ATCC 35151 = assay: MIC, spectrum of activity; type: cell-based; conditions: Pseudomonas aeruginosa, ATCC35151
E. faecalis ATCC 29212 = assay: MIC, spectrum of activity; type: cell-based; conditions: Enterococcus faecalis, ATCC29212
M. avium complex (MAC) = assay: MIC against MAC; type: cell-based; conditions: Mycobacterium avium, read-out: MIC against MAC
rapid-growing NTM = assay: MIC against rapid-growing NTM; type: cell-based; conditions: read-out: MIC values against rapid-growing NTM
[10] = type: cell-based
[11] = system: Anaerobes (n > 20 strains); assay: organism not typed; type: cell-based
Mabs 21 = assay: Time-kill assay; type: cell-based, M. abscessus; conditions: 10x MIC
[12] = M. abscessus 21, 7H9 + OADC (5 mg/mL albumin)
[13] = M. abscessus 1, 7H9 + OADC (5 mg/mL albumin)
[14] = M. abscessus 79, 7H9 + OADC (5 mg/mL albumin)

## CC12CCCC(C(=O)Nc3nc4ccc(OC(F)(F)F)cc4s3)(CCC1)C2 [CRS400359]
S. aureus ATCC 29213
  MIC: > 64 µg/mL
[1]; 168 h
  MIC: 0.5 µg/mL (≈ 1.25 µM)
M. abscessus 21; [12]
  MIC: 2 µg/mL
M. abscessus 21; M. abscessus 21, MHB
  MIC: 0.06 µg/mL (≈ 0.151 µM)
Other NTM (n = 12)
  MIC90: 0.5 µg/mL (≈ 1.25 µM)
  MIC range: 0.12 to 2 µg/mL
C. albicans ATCC 10231
  MIC: 64 µg/mL (≈ 161 µM)
M. abscessus 1; [13]
  MIC: 1 µg/mL
M. abscessus 1; M. abscessus 1, MHB
  MIC: 0.06 µg/mL (≈ 0.151 µM)
[2]
  MIC range: 0.06 to 1 µg/mL
  MIC90: 1 µg/mL (≈ 2.51 µM)
physchem
  solubility at 24 h: < 3 µM
M. fortuitum 41
  MIC: 0.12 µg/mL (≈ 0.301 µM)
M. avium 101
  MIC: 2 µg/mL
[3]
  Protein (serum) binding: >95%
M. abscessus ATCC 19977
  MIC: ≤ 0.06 µg/mL
HepG2 cytotoxicity, 72 h
  IC50 at 72 h: 10 µM
HepG2 cytotoxicity, 72 h; value in brackets
  IC50 at 72 h: 4 µg/mL
S. pyogenes ATCC 19615
  MIC: > 64 µg/mL
M. abscessus 79; [14]
  MIC: 0.25 µg/mL
M. abscessus 79; M. abscessus 79, MHB
  MIC: 0.06 µg/mL (≈ 0.151 µM)
CYP2B6
  inhibition at 10 µM: 30%
CYP3A
  inhibition at 10 µM: 0%
[4]
  MIC range: 0.25 to 0.5 µg/mL
  MIC90: 0.25 µg/mL (≈ 0.627 µM)
M. intracellulare 1956
  MIC: 2 µg/mL
[5]
  MIC: > 64 µg/mL
S. pneumoniae ATCC 49619
  MIC: 32 µg/mL (≈ 80.3 µM)
M. chimaera 1502055
  MIC: 2 µg/mL
[6]
  MIC: ≤ 0.06 µg/mL
[7]
  MIC: 0.12 µg/mL (≈ 0.301 µM)
M. chelonae 93
  MIC: 0.12 µg/mL (≈ 0.301 µM)
[8]
  MIC range: 0.06 to 2 µg/mL
  MIC90: 0.25 µg/mL (≈ 0.627 µM)
[9]
  MIC: > 64 µg/mL
P. aeruginosa ATCC 35151
  MIC: 64 µg/mL (≈ 161 µM)
E. faecalis ATCC 29212
  MIC: > 64 µg/mL

## CC12CCCC(C(=O)Nc3nc4cc(Cl)cc(Cl)c4s3)(CCC1)C2 [CRS400393]
S. aureus ATCC 29213
  MIC: > 64 µg/mL
[1]; 168 h
  MIC: ≤ 0.12 µg/mL
[1]; read-out: MIC against Mtb
  MIC: ≤ 0.12 µg/mL
M. abscessus 21; [12]
  MIC: 1 µg/mL
M. abscessus 21; M. abscessus 21, MHB
  MIC: 0.03 µg/mL (≈ 0.0783 µM)
M. avium complex (MAC)
  MIC: 1 to 2 µg/mL (≈ 2.61 to 5.22 µM)
Other NTM (n = 12)
  MIC90: 0.5 µg/mL (≈ 1.3 µM)
  MIC range: 0.12 to 0.5 µg/mL
C. albicans ATCC 10231
  MIC: > 64 µg/mL
M. abscessus 1; [13]
  MIC: 1 µg/mL
M. abscessus 1; M. abscessus 1, MHB
  MIC: 0.06 µg/mL (≈ 0.157 µM)
rapid-growing NTM
  MIC: 0.03 to 0.5 µg/mL (≈ 0.0783 to 1.3 µM)
[2]
  MIC range: ≤ 0.03 to 0.5 µg/mL
  MIC90: 0.25 µg/mL (≈ 0.652 µM)
physchem
  solubility at 24 h: < 3 µM
M. fortuitum 41
  MIC: 0.06 µg/mL (≈ 0.157 µM)
[10]
  interaction when combined with other antimycobacterial agents: additivity and no antagonism
M. avium 101
  MIC: 2 µg/mL
[3]
  Protein (serum) binding: >95%
M. abscessus ATCC 19977
  MIC: 0.03 µg/mL (≈ 0.0783 µM)
HepG2 cytotoxicity, 72 h
  IC50 at 72 h: > 10 µM
HepG2 cytotoxicity, 72 h; value in brackets
  IC50 at 72 h: > 4 µg/mL
S. pyogenes ATCC 19615
  MIC: > 64 µg/mL
M. abscessus 79; [14]
  MIC: 0.5 µg/mL
M. abscessus 79; M. abscessus 79, MHB
  MIC: 0.03 µg/mL (≈ 0.0783 µM)
CYP2B6
  inhibition at 10 µM: 39%
CYP3A
  inhibition at 10 µM: 26%
[11]
  MIC: > 32 µg/mL
[4]
  MIC range: 0.12–0.12 μg/mL
  MIC90: 0.12 µg/mL (≈ 0.313 µM)
Mabs 21
  time-kill kinetics, result in words: bactericidal activity
Mabs 21; after 5 days
  drop in Mabs in time-kill assay: 2 Log10 CFU
Mabs 21; for 3 days
  effect against Mabs in time-kill assay: bacteriostatic
M. intracellulare 1956
  MIC: 2 µg/mL
[5]
  MIC: > 64 µg/mL
S. pneumoniae ATCC 49619
  MIC: 32 µg/mL (≈ 83.5 µM)
M. chimaera 1502055
  MIC: 1 µg/mL
[6]
  MIC: 0.03 µg/mL (≈ 0.0783 µM)
[7]
  MIC: 0.03 µg/mL (≈ 0.0783 µM)
M. chelonae 93
  MIC: 0.03 µg/mL (≈ 0.0783 µM)
[8]
  MIC range: ≤ 0.03 to 0.25 µg/mL
  MIC90: 0.25 µg/mL (≈ 0.652 µM)
[9]
  MIC: 64 µg/mL (≈ 167 µM)
P. aeruginosa ATCC 35151
  MIC: 64 µg/mL (≈ 167 µM)
E. faecalis ATCC 29212
  MIC: > 64 µg/mL
